Here are results for 19 compounds from patent publication US4816482A, “Radioprotective agents having an amino-thioalkyl structure” (priority 1983, dated 1989).

Structures can show the parent of a compound that is named as a salt. Where two headings read alike, the source gives them in different places.

Data set [1] in a line: Acute toxicity (LD50), i.p. It counts as in vivo, mice. The note with it: mouse, in vivo, ip.
The subject of data set [2] is mice. Nature of the data set: Radioprotective activity: survival at the 30th day after irradiation. It counts as in vivo. Conditions: for responders at 400 mg/kg: 400 mg/kg i.p.; for radioprotective activity (in words): mouse, in vivo; for responders at 500 mg/kg: 500 mg/kg i.p.; for responders at 1000 mg/kg: 1,000 mg/kg i.p.; for responders at 625 mg/kg: 625 mg/kg i.p. As for the experimental part:
This study of radioprotective activity was carried out according to a technique described by M. Fatome at al., Eur. J. Med. Chem. 1977, 12, (1), 93. […] This dose is equal to 950 Rad.
More complete studies are recorded in Table II.

Data set [3] relates to mice. Nature of the data set: Acute toxicity (LD50), i.p. The note with it: Table I. It counts as in vivo.
[4] abbreviates: Mus musculus, light or radiation study, ip, 720 h, Table I, 750 mg/kg i.p., 15' before irradiation at 900 or 950 Rad, read-out: % survival at the 30th day.
[5] abbreviates: Mus musculus, light or radiation study, ip, 720 h, read-out: % survival at 30 days, Table II, 750 mg/kg i.p., 15' before irradiation, 900 Rad.
Setting [6] is: Mus musculus, light or radiation study, ip, 720 h, read-out: % survival at 30 days, Table II, 750 mg/kg i.p., 2 hours before irradiation, 900 Rad.
The mark [7] stands for this setting: Mus musculus, light or radiation study, ip, 720 h, Table I, 15' before irradiation at 900 or 950 Rad, read-out: % survival at the 30th day.
The mark [8] stands for this setting: Mus musculus, light or radiation study, ip, 720 h, Table II, 15' before irradiation, 950 Rad, read-out: % survival at 30 days.
[9] abbreviates: Mus musculus, light or radiation study, ip, 720 h, Table II, 15' before irradiation, 900 Rad, read-out: % survival at 30 days.
[10] abbreviates: Mus musculus, light or radiation study, ip, 720 h, Table II, 15' before irradiation, 1,100 Rad, read-out: % survival at 30 days.

For the compound `Br.Br.C[C@H](N)C(=O)NCCSSCCNC(=O)[C@H](C)N` [Example 19, N,N'-[…] DIHYDROBROMIDE], the LD50 (as a rule, the dose expected to kill half of the subjects tested) in data set [1] (Table I) amounted to 800 mg/kg. The responders at 400 mg/kg in the data set on mice [2] (Mus musculus, light or radiation study, ip, 720 h, read-out: % survival at the 30th day, Table I, 15' before irradiation at 900 or 950 Rad) turned out to be 100%.
In the case of `CC(=O)SCC(C)(C)NC(=O)CN` [Example 26, TRIFLUOROACETATE], the LD50 in data set [1] (Table I) and in data set [1] (Table II) was 1200 mg/kg throughout. Also, the responders at 750 mg/kg turned out to be 0% in the data set on mice [2] (Mus musculus, ip, 720 h, Table II, 750 mg/kg i.p., 4th entry, time and Rad not given, read-out: % survival at 30 days); 60% in the data set on mice [2] (setting [4]); 60% in the data set with mice [2] (Mus musculus, light or radiation study, ip, 720 h, Table II, 750 mg/kg i.p., 15' before irradiation, 900 Rad, read-out: % survival at 30 days); 70% with mice [2] (Mus musculus, light or radiation study, ip, 720 h, Table II, 750 mg/kg i.p., 2 hours before irradiation, 900 Rad, read-out: % survival at 30 days). Further, the responders at 187 mg/kg in the data set on mice [2] (Mus musculus, light or radiation study, ip, 720 h, Table II, 187 mg/kg i.p., 15' before irradiation, 900 Rad, read-out: % survival at 30 days) amounted to 40%. Also, in the data set with mice [2], the “radioprotective activity (in words)” value is recorded as “show radioprotective activity”.
For the compound `CC(=O)NC(C)(C)CSC(=O)CN.O=C(O)C(F)(F)F` [Example 24, TRIFLUOROACETATE], the responders at 750 mg/kg is 70% in the data set on mice [2] (setting [5]); 13% in the data set on mice [2] (Mus musculus, light or radiation study, ip, 720 h, read-out: % survival at 30 days, Table II, 750 mg/kg i.p., 15' before irradiation, 1,100 Rad); 50% in the data set with mice [2] (setting [6]); 70% in the data set on mice [2] (Mus musculus, light or radiation study, ip, 720 h, read-out: % survival at the 30th day, Table I, 750 mg/kg i.p., 15' before irradiation at 900 or 950 Rad).
Take `Br.CC(=O)SCCNC(=O)CCCN` [Example 6, HYDROBROMIDE]: the responders at 400 mg/kg with mice [2] (setting [7]) was 60%.
Turning to `CC(=O)SCCNC(=O)CNC(=O)CN.O=C(O)C(F)(F)F` [Example 28], the LD50 in data set [1], in data set [1] (Table I) and in data set [1] (Table II) was more than 2000 mg/kg throughout. Also, the “survival at 30 days” value with mice [2] (mice, 1,500 mg/kg (i.p.) 15 minutes before irradiation of 1,100 Rad) was determined as 100%.
`Br.CC(=O)SCCNC(=O)CCCN` [Example 6] showed an LD50 with mice [3] of 800 mg/kg.
The compound `NCC(=O)NCCSC(=O)C(Cl)Cl.O=C(O)C(F)(F)F` [Example 10, N-GLYCYL-S-(DICHLOROACETYL)CYSTEAMINE TRIFLUOROACETATE] registered an LD50 in the data set with mice [3] of 800 mg/kg. This compound yielded a responders at 800 mg/kg with mice [2] (Mus musculus, light or radiation study, ip, 720 h, Table I, 800 mg/kg i.p., 15' before irradiation at 900 or 950 Rad) of 40%.
Turning to `CC(=O)NCCSC(=O)CN.O=C(O)C(F)(F)F` [Example 34, TRIFLUOROACETATE], the responders at 500 mg/kg in the data set on mice [2] (setting [7]) and with mice [2] (setting [8]) was 70% throughout. Moreover, in the data set with mice [2] (Mus musculus, light or radiation study, ip, 720 h, Table II, 125 mg/kg i.p., 15' before irradiation, 950 Rad, read-out: % survival at 30 days), the responders at 125 mg/kg worked out at 20%.
For `Br.CC(=O)SCCNC(=O)CN` [Example 2], the LD50 with mice [3] is 1,500 mg/kg.
With `CC(=O)OC(CNC(=O)CN)CSSCC(CNC(=O)CN)OC(C)=O` (stereo not drawn) [Example 31, 1,2-DI(3-GLYCYLAMINO-2-ACETOXYPROPYL)[…](TRIFLUOROACETATE)], the LD50 in data set [1] (Table I) and in data set [1] (Table II) was 750 mg/kg throughout. Besides, the “% survival at 30 days” value with mice [2] (ip, 93.7 mg/kg, 720 h) was 0%. For the same compound, in the data set with mice [2] (ip, 375 mg/kg), the “% survival at the 30th day” value is recorded as 60%.
`CC(=O)NC(C)(C)CSC(=O)CN.O=C(O)C(F)(F)F` [Example 24]: the LD50 in data set [1] (Table I) and in data set [1] (Table II) was 1500 mg/kg in each case. Besides, in the data set with mice [2], the “radioprotective activity (in words)” value was “show radioprotective activity”.
On to `NCC(=O)NCC(=O)NCCSSCCNC(=O)CNC(=O)CN.O=C(O)C(F)(F)F.O=C(O)C(F)(F)F` [Example 36, N,N'-DI(GLYCYLGLYCYL)CYSTAMINE DI(TRIFLUOROACETATE)], for which the LD50 in data set [1] (Table I) and in data set [1] (Table II) was 2000 mg/kg throughout. For the same compound, the responders at 1000 mg/kg in the data set on mice [2] (setting [7]) and in the data set with mice [2] (setting [8]) was 30% throughout. Moreover, the responders at 250 mg/kg in the data set with mice [2] (Mus musculus, light or radiation study, ip, 720 h, Table II, 250 mg/kg i.p., 15' before irradiation, 950 Rad, read-out: % survival at 30 days) came out at 10%.
With `Br.CC(=O)SCCNC(=O)CN` [Example 2, HYDROBROMIDE], in the data set with mice [2] (Mus musculus, light or radiation study, ip, 720 h, Table I, 187 mg/kg i.p., 15' before irradiation at 900 or 950 Rad, read-out: % survival at the 30th day), the responders at 187 mg/kg worked out at 67%. Besides, the responders at 750 mg/kg in the data set with mice [2] (setting [4]) was found to be 100%.
For the compound `CC(=O)SCCNC(=O)CNC(=O)CN.O=C(O)C(F)(F)F` [Example 28, TRIFLUOROACETATE], the figures for the responders at 1000 mg/kg in the data set on mice [2] (setting [7]), with mice [2] (setting [9]) and with mice [2] (setting [10]) were 100%, 100% and 0%, respectively. Further, the responders at 1500 mg/kg with mice [2] (Mus musculus, light or radiation study, ip, 720 h, Table II, 1,500 mg/kg i.p., 15' before irradiation, Rad not printed (1,100 in text), read-out: % survival at 30 days) worked out at 100%.
Consider `CC(=O)SCCNC(=O)CN` [Example 8], for which the LD50 in data set [1] (Table I) and in data set [1] (Table II) was 1200 mg/kg in each case. The “% survival at the 30th day” value in the data set with mice [2] (Table I, 750 mg/kg i.p., 15' before irradiation at 900 or 950 Rad) was determined as 93%. For the same compound, the “% survival at 30 days” value was determined as 0% in the data set on mice [2] (Table II, 187 mg/kg i.p., 15' before irradiation, 900 Rad); 93% with mice [2] (Table II, 750 mg/kg i.p., 15' before irradiation, 900 Rad); 50% in the data set with mice [2] (Table II, 750 mg/kg i.p., 15' before irradiation, 1,100 Rad).
`CC(=O)SCCNC(=O)[C@H](C)N.O=C(O)C(F)(F)F` [Example 22, TRIFLUOROACETATE]: the responders at 156 mg/kg in the data set with mice [2] (Mus musculus, ip, 720 h, Table II, 156 mg/kg i.p., time and Rad not given, read-out: % survival at 30 days) was found to be 0%. The responders at 625 mg/kg was determined as 100% in the data set on mice [2] (setting [7]); 10% with mice [2] (Mus musculus, light or radiation study, ip, 720 h, Table II, 2 (hours, cut off) before irradiation, 900 Rad, read-out: % survival at 30 days); 100% with mice [2] (setting [9]); 50% in the data set on mice [2] (setting [10]).
Consider `NCC(=O)NCCSSCCNC(=O)CN.O=C(O)C(F)(F)F.O=C(O)C(F)(F)F` [Example 18, N,N'-[…] DI(TRIFLUOROACETATE)], for which the LD50 in data set [1] (Table I) came out at 1200 mg/kg; in data set [1] (Table II), 1250 mg/kg. In the data set with mice [2] (Mus musculus, light or radiation study, ip, 720 h, read-out: % survival at 30 days, Table II, 47 mg/kg i.p., 15' before irradiation, 900 Rad), the responders at 47 mg/kg amounted to 0%. The responders at 94 mg/kg in the data set with mice [2] (Mus musculus, light or radiation study, ip, 720 h, read-out: % survival at 30 days, Table II, 94 mg/kg i.p., 15' before irradiation, 900 Rad) was 30%. The responders at 187 mg/kg was 90% in the data set with mice [2] (Mus musculus, light or radiation study, ip, 720 h, read-out: % survival at 30 days, Table II, 187 mg/kg i.p., 15' before irradiation, 900 Rad) and 0% in the data set with mice [2] (Mus musculus, light or radiation study, ip, 720 h, read-out: % survival at 30 days, Table II, 187 mg/kg i.p., 15' before irradiation, 1,100 Rad). The responders at 750 mg/kg is 100% in the data set with mice [2] (setting [5]); 10% in the data set with mice [2] (Mus musculus, light or radiation study, ip, 720 h, read-out: % survival at 30 days, Table II, 750 mg/kg i.p., 15' before irradiation, 1,300 Rad); 60% in the data set with mice [2] (setting [6]). Moreover, the responders at 1000 mg/kg in the data set on mice [2] (Mus musculus, light or radiation study, ip, 720 h, read-out: % survival at 30 days, Table II, 15' before irradiation, 1,300 Rad) is 0%. In addition, the “% survival at the 30th day” value in the data set with mice [2] (ip, 750 mg/kg, 720 h) came out at 100%.
Take `Br.CC(=O)SCCNC(=O)[C@H](C)N` [Example 4]: the LD50 in the data set with mice [3] is 1,500 mg/kg.
Turning to `Br.CC(=O)SCCNC(=O)[C@H](C)N` [Example 4, HYDROBROMIDE], in the data set on mice [2] (Mus musculus, light or radiation study, ip, 720 h, Table I, 188 mg/kg i.p., 15' before irradiation at 900 or 950 Rad), the responders at 188 mg/kg came out at 40%. Besides, the responders at 750 mg/kg with mice [2] (setting [4]) was 80%.
